Laboratory results: PMC6888386, “Identification of Novel 1,3,5-Triphenylbenzene Derivative Compounds as Inhibitors of Hen Lysozyme Amyloid Fibril Formation” (International Journal of Molecular Sciences, 2019)

How the values were obtained:
[1] = molecular target: T1, hen egg white lysozyme (HEWL) (Gallus gallus, UniProt P00698); experiment: ThT fluorescence assay of HEWL amyloid fibril formation; type: biochemical; conditions: 48 h; for IC50: HEWL 2 mg/mL (140 µM), 50 mM glycine buffer pH 2.5, 57 °C, stirring 250 rpm, compound 0.03-2.6 µM, Figure 2, read-out: IC50 of prevention of HEWL amyloid fibril formation; for Relative efficacy as inhibitor in terms of IC50 value: HEWL 140 µM, pH 2.5, 57 °C
T1 construct: Hen egg white lysozyme (HEWL), thioflavin T (ThT), and Congo red (CR) were purchased from Sigma-Aldrich; purchased Sigma-Aldrich (St. Louis, MO, USA); host or cells: hen egg white (per the product name)
Method: The inhibition potential of the six compounds was determined using the ThT fluorescence assay to measure the amount of amyloid aggregates after the addition of various concentrations of each compound ranging from 0.03 to 2.6 µM. Aggregation of HEWL was induced by incubating the protein for 48 h at a concentration of 2 mg/mL (140 µM) in 50 mM glycine buffer, pH 2.5, and 57 °C, while stirred gently by magnetic bars (rpm 250), in the absence or presence of 0.03–2.6 µM compounds 1–6. […] The IC50 values of the compounds, corresponding to the concentration at which the inhibitory effect is half of the maximum effect, were determined (Figure 2).
(§1) HEWL concentration was determined by optical absorption at 280 nm (ε280 = 2.65 L·g^−1·cm^−1). HEWL was dissolved to a concentration of 2 mg/mL (140 µM) in 50 mM glycine buffer, pH 2.5, centrifuged for 10 min at 13,000 rpm, then incubated at 57 °C for the specified time lengths in the absence or presence of the indicated concentrations of compounds 1–6, under gentle stirring at 250 rpm by a Teflon magnetic bar.
A mother solution of 2.5 mM ThT was prepared in 10 mM sodium phosphate buffer, 150 mM NaCl, pH 7.0. It was then passed through a 0.45 μm filter paper and stored at 4 °C until it was placed at room temperature immediately before use. At regular time intervals, a 10 µL aliquot of protein solution was mixed with 990 μL of ThT solution in a 10 × 10 mm quartz cuvette and the fluorescence emission spectra were recorded at room temperature using a Cary Eclipse VARIAN fluorescence spectrophotometer (Varian, Mulgrave, Australia) and an excitation wavelength of 440 nm.

[2] = molecular target: T1, hen egg white lysozyme (HEWL); experiment: Congo red (CR) assay of HEWL aggregation; type: biochemical; conditions: 0.32 µM compound; for CR absorbance relative to that measured in the absence of the compounds: HEWL pre-incubated 48 h under aggregating conditions
Method: Aliquots of the same samples used for ThT experiments were also used to carry out the CR assays. […] The higher CR absorbance obtained in the presence of HEWL is likely to originate from the presence of protein aggregates that scatter light, whereas the red shift of the peak from 490 to 520–540 nm indicates the presence of β-sheet containing aggregates.
as §1
Since compounds 1–6 have optical absorption spectra partially overlapped to that of CR, all protein samples were centrifuged at 10,000 rpm and the pellets resuspended in 50 mM glycine buffer, pH 2.5, at room temperature. A mother solution of 20 mM CR was prepared in 5 mM sodium phosphate buffer, 150 mM NaCl, pH 7.4, it was then filtered using a center-glass N4 filter and stored at 4 °C, until it was placed at room temperature immediately before use. At different time points during protein aggregation, a 60 μL aliquot of resuspended protein solution was mixed with 440 μL of CR solution. Optical absorption spectra were acquired after 2–3 min equilibration at 25 °C, using a Cecil 7200 UV–visible spectrophotometer (Aquarius, Cambridge, England) and a 1 cm path-length cell.

[3] = tested on: SH-SY5Y human neuroblastoma cells; experiment: MTT reduction test with HEWL aggregates; type: cell-based; conditions: for Rescue of cell viability (MTT reduction): 2 µM HEWL aggregates formed in the presence of 0.32 µM compound
Method: (§2) We then assessed the cytotoxicity of HEWL aggregates, formed in the absence or presence of compounds 1–6, according to the aggregation protocol described for the ThT experiments. HEWL aggregates were collected by centrifugation, dried under N2, dissolved in cell culture medium, and added to SH-SY5Y human neuroblastoma cells at a concentration of 2 µM (monomer equivalents). The ability of the resulting aggregates to cause cellular dysfunction was assessed by performing the MTT reduction inhibition assay, a widely used indicator of mitochondrial dysfunction. […] Very similar results were obtained by measuring the activity of caspase-3, a well-recognized apoptotic marker. A significant activation of caspase-3 (320 ± 12%, as compared to untreated cells) was observed following treatment for 24 h of SH-SY5Y cells with HEWL aggregates at 2 µM (Figure 7B).
(§3) Authenticated human neuroblastoma SH-SY5Y cells were purchased from American Type Culture Collection (ATCC) (Manassas, VA, USA) and they tested negative for mycoplasma contaminations. SH-SY5Y cells were cultured in Dulbecco’s modified Eagle’s medium (DMEM), F-12 Ham with 25 mM HEPES and NaHCO3 (1:1) supplemented with 10% fetal bovine serum (FBS), 1.0 mM glutamine and 1.0% penicillin and streptomycin solution. Cells were maintained in a 5.0% CO2 humidified atmosphere at 37 °C and grown until 80% confluence for a maximum of 20 passages.
HEWL samples pre-incubated for 48 h under aggregating conditions in the absence or presence of 0.32 µM compounds 1–6 were centrifuged and the pellets were dried under N2 to remove any compounds and DMSO, dissolved in cell culture medium at a final HEWL concentration of 2 μM (monomer equivalents), and added to SH-SY5Y cells seeded in 96-well plates for 24 h at 37 °C. The cell medium was then removed and the MTT solution (0.5 mg/mL in RPMI) was added to the cells for 4 h. The medium was then aspirated, and the formazan product was solubilized with cell lysis buffer (20% SDS, 50% N, N-dimethylformamide, pH 4.7) for 1 h, as previously described.

[4] = tested on: caspase-3 activity in SH-SY5Y cells; experiment: Caspase-3 activity after exposure to HEWL aggregates; type: cell-based, human; conditions: 24 h; for Prevention of the apoptotic response (caspase-3 activation) induced by aggregates: 2 µM HEWL aggregates formed in the presence of 0.32 µM compound
Method: as §2, §3
HEWL aggregates were formed in the absence or in the presence of 0.32 µM of compounds 1–6 as described in the previous section and then added to the cell culture medium of SH-SY5Y cells seeded on glass coverslips for 24 h at 2 μM (monomer equivalents). Caspase-3 activity was then analyzed by using FAM FLICA^TM caspases 3 & 7 solution (caspase 3 & 7 FLICA kit FAM-DEVDFMK, Immunochemistry Technologies, LLC, Bloomington, MN, USA). Cell fluorescence was analyzed by the TCS SP8 scanning confocal microscopy system (Leica Microsystems, Mannheim, Germany) equipped with an argon laser source, as previously reported. A series of 1.0 μm thick optical sections (1024 × 1024 pixels) was taken through the cell depth for each sample using a Leica Plan Apo 63 × oil immersion objective for fluorescence measurement at 488 nm. The confocal microscope was set at optimal acquisition conditions, e.g., pinhole diameters, detector gain, and laser powers. Settings were maintained constant for each analysis.

[5] = molecular target: T1, hen egg white lysozyme (HEWL); experiment: FTIR spectroscopy of HEWL aggregates; type: biochemical; conditions: 0.32 µM compound, 48 h, resuspended in D2O
Method: New samples of HEWL aggregates with or without compounds 1–6 at a concentration of 0.32 µM were prepared, under the same conditions as those used for ThT and CR experiments, centrifuged after 48 h to collect the aggregates, resuspended at high concentration in D2O and analyzed with FTIR spectroscopy, to determine the effects of the six compounds on the secondary structure of the HEWL aggregates. […] Another peak is present at ca. 1650 cm^−1 attributable to either unordered or α-helical secondary structure.
Samples were incubated for 48 h to promote aggregation as described above in the presence of 0.32 µM compounds 1–6, centrifuged at 13,000× g for 10 min and resuspended in D2O to a final volume of 72.8 μL, to reach a final concentration of 27.8 mg/mL. For each sample, 40 μL was deposited onto an Omni-Cell transmission cell with a 25 μm spacer (Specac, Orpington, UK), and Fourier-transform infrared (FTIR) spectra were recorded using a FTS-40 FTIR spectrometer (Bio-Rad, Hercules, CA, USA) purged with a continuous flow of dry air. Sixty-four interferograms were accumulated in each case at a spectral resolution of 1 cm^−1. The FTIR absorbance spectra were blank-subtracted and baseline-corrected to reveal the amide I region (1600–1700 cm^−1). […]

[6] = molecular target: T1, hen egg white lysozyme (HEWL); experiment: Atomic force microscopy of HEWL aggregates; type: biochemical; conditions: 0.32 µM compound, HEWL 140 µM, pH 2.5, 57 °C, 48 h
Method: In order to define further the nature of the aggregated species, an analysis of their morphologies was carried out using AFM. HEWL was incubated under the same aggregation conditions used for the ThT, CR, and FTIR experiments, i.e., for 48 h at a concentration of 2 mg/mL (140 µM) in 50 mM glycine buffer, pH 2.5, and 57 °C, under stirring (250 rpm), in the absence or presence of 0.32 µM of compounds 1–6 and the resulting samples were examined by AFM (Figure 6). […] Rather, oligomeric and/or amorphous species were predominant.
HEWL samples pre-incubated for 48 h under aggregating conditions with or without 0.32 µM compounds 1–6 were diluted 100 times in filtered deionized water. A 5 µL aliquot of each of the resulting samples was placed on freshly cleaved mica at room temperature. After a few minutes, the mica was slowly washed with 100 μL of deionized water and dried with N2. Each image was acquired in a non-contact mode at a scan speed of 30 μm/s, loop filter of 3 Hz and force of 200 nN with a Dual Scope Probe Scanner (Veeco, model Auto probe, CP-Research, CA, USA) with an area of 5 × 5 μm^2. Conical shape silicon tips (MikroMasch NSC16) with a resonance frequency of 150 kHz and a nominal constant of 40 N/m were used. Fifteen images were collected for each compound.

[7] = 24 h, 2 µM (monomer equivalents) HEWL aggregates formed in the presence of 0.32 µM compound
[8] = 24 h exposure, 2 µM (monomer equivalents), no compound

T1 sequence (P00698 19-147): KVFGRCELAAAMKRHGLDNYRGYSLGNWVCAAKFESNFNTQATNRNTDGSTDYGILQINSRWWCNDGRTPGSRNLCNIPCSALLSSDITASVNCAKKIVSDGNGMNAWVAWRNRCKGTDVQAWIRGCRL

Compound | IC50 [1] | CR absorbance relative to that measured in the absence of the compounds [2] | melting point | Relative efficacy as inhibitor in terms of IC50 value [1] | Change of secondary structure of HEWL aggregates (amide I, loss of β-sheet) [5] | Absorbance peak at 540 nm in CR difference spectra ([2]; 48 h, spectrum of CR alone subtracted) | MTT reduction relative to untreated cells [3, 7] | Prevention of the apoptotic response (caspase-3 activation) induced by aggregates [4] | Rescue of cell viability (MTT reduction) ([3]; 24 h) | Morphology of HEWL aggregates by AFM [6] | MTT reduction relative to untreated cells [3, 8] | Activation of caspase-3 as compared to untreated cells ([4]; HEWL aggregates at 2 µM, no compound)
O=[N+]([O-])c1ccc(-c2cc(-c3ccc([N+](=O)[O-])cc3)cc(-c3ccc([N+](=O)[O-])cc3)c2)cc1 [Compound 3, 1,3,5-tris(4-nitrophenyl)benzene] | 190 nM | lower | 151 to 152 °C |  |  |  |  | only a slight protective effect | partial rescue |  |  | 
COc1ccc(-c2cc(-c3ccc(OC)cc3)cc(-c3ccc(OC)cc3)c2)cc1 [Compound 5, 1,3,5-tris(4-methoxyphenyl)benzene] | 200 nM | lower | 142 to 143 °C |  |  |  | 93.9 ± 2.9% | significantly prevented |  | a few short fibrillar assemblies along with oligomeric species |  | 
HEWL aggregates: hen egg white lysozyme aggregates formed 48 h at pH 2.5, 57 °C in the absence of compounds |  |  |  |  |  |  |  |  |  |  | 73.9 ± 2.1% | 320 ± 12%
native HEWL: native hen egg white lysozyme |  |  |  |  |  |  |  |  |  |  | unaffected | 

More lines, main results first:

IC50 [1] | CR absorbance relative to that measured in the absence of the compounds [2] | melting point | Relative efficacy as inhibitor in terms of IC50 value [1] | Change of secondary structure of HEWL aggregates (amide I, loss of β-sheet) [5] | Absorbance peak at 540 nm in CR difference spectra ([2]; 48 h, spectrum of CR alone subtracted) | Compound | MTT reduction relative to untreated cells [3, 7] | Prevention of the apoptotic response (caspase-3 activation) induced by aggregates [4] | Rescue of cell viability (MTT reduction) ([3]; 24 h) | Morphology of HEWL aggregates by AFM [6] | MTT reduction relative to untreated cells [3, 8] | Activation of caspase-3 as compared to untreated cells ([4]; HEWL aggregates at 2 µM, no compound)
100 nM | lower | 171 to 173 °C |  |  |  | c1ccc(-c2cc(-c3ccccc3)cc(-c3ccccc3)c2)cc1 [Compound 1, 1,3,5-triphenylbenzene] | 92.7 ± 3.2% | significantly prevented |  |  |  | 
50 nM | lower | 238 to 240 °C | best inhibitor | most remarkable change |  | Fc1ccc(-c2cc(-c3ccc(F)cc3)cc(-c3ccc(F)cc3)c2)cc1 [Compound 2, 1,3,5-tris(4-fluorophenyl)benzene] | 96.2 ± 3.2% | significantly prevented |  |  |  | 
400 nM | lower | 178 to 179 °C |  |  |  | Cc1ccc(-c2cc(-c3ccc(C)cc3)cc(-c3ccc(C)cc3)c2)cc1 [Compound 4, 1,3,5-tris(4-methylphenyl)benzene] |  | significantly prevented | partial rescue |  |  | 
980 nM | markedly higher | 237 to 239 °C | minimum effect |  | only a modest decrease | Oc1ccc(-c2cc(-c3ccc(O)cc3)cc(-c3ccc(O)cc3)c2)cc1 [Compound 6, 1,3,5-tris(4-hydroxyphenyl)benzene] |  | only a slight protective effect | partial rescue | a mixture of unbranched filamentous assemblies |  | 
